From US9017725B2, “Topical drug delivery systems for ophthalmic use” (Aurinia Pharmaceuticals Inc., priority 2009, dated 2015)
Converted amounts (≈) assume the structure as drawn.

Assay: Aqueous solubility and solubility in mixed nanomicellar formulation
Format: physicochemical
Conditions: for solubility: mixed nanomicellar formulation, aqueous with cosolvent or surfactant or cyclodextrin
Method: The ethanolic solution was evaporated under vacuum to get a thin film near-solid matter. Deionized water, 25 mL, was added to the thin film near-solid matter and sonicated for approximately 20 min to ensure complete formation of mixed micelles. The prepared 2× formulation was stored at room temperature.

improvement of solubility (mixed nanomicellar formulation versus aqueous solubility) | solubility [µg/mL] | improvement of solubility (mixed nanomicellar formulation (4 mg/mL) versus aqueous solubility) | Structure (SMILES)
about 6.2 fold | 1000 (≈ 2.55 mM) |  | C[C@@H]1C[C@H]2[C@@H]3CCC4=CC(=O)C=C[C@]4(C)[C@@]3(F)[C@@H](O)C[C@]2(C)[C@@]1(O)C(=O)CO [dexamethasone]
 | 4000 (≈ 4.38 mM) | up to 2000 fold | CO[C@H]1C[C@@H]2CC[C@@H](C)[C@@](O)(O2)C(=O)C(=O)N2CCCC[C@H]2C(=O)O[C@H]([C@H](C)C[C@@H]2CC[C@@H](O)[C@H](OC)C2)CC(=O)[C@H](C)/C=C(\C)[C@@H](O)[C@@H](OC)C(=O)[C@H](C)C[C@H](C)/C=C/C=C/C=C/1C [rapamycin]
